In paper PMC8395285, “Novel 2-(Adamantan-1-ylamino)Thiazol-4(5H)-One Derivatives and Their Inhibitory Activity towards 11β-HSD1—Synthesis, Molecular Docking and In Vitro Studies” (International Journal of Molecular Sciences, 2021) one finds inhibition, IC50 and melting point data, which are given here for eleven molecules.

Molecules are shown by their SMILES.

In one series the target is T1, 11β-HSD1 (Homo sapiens, UniProt P28845).
T1 construct: Human liver microsomes were used as a source of 11β-HSD1 enzyme; tissue XenoTech Lot No.1410013; host or cells: pooled human liver microsomes, mixed gender
Nature of the series: Inhibition of 11β-HSD1 (cortisone to cortisol, human liver microsomes, cortisol ELISA). Format: biochemical. The following applies: for inhibition at 10 µM: 10 µM compound, 2.5 h at 37 °C; for IC50: concentrations 0.625-10.0 µM, read from the chart. The procedure: To stop the reaction, 10 µL of a 100 µM solution of 18β-glycyrrhetinic acid in PBS was added. The level of cortisol obtained in the reaction was measured by commercially available ELISA kit.
(§1) As a control, analogous tests without the addition of inhibitors were used. Half the inhibitory concentration (causing 50% reduction of cortisol or cortisone) was read from the chart.

The target of the next series is T2, 11β-HSD2 (Homo sapiens, UniProt P80365).
T2 construct: Human liver microsomes were used as a source of 11β-HSD2 enzyme; tissue XenoTech Lot No. 1710160; host or cells: human kidney microsomes, mixed gender (the method paragraph says human liver microsomes)
T2 sequence (P80365 1-405): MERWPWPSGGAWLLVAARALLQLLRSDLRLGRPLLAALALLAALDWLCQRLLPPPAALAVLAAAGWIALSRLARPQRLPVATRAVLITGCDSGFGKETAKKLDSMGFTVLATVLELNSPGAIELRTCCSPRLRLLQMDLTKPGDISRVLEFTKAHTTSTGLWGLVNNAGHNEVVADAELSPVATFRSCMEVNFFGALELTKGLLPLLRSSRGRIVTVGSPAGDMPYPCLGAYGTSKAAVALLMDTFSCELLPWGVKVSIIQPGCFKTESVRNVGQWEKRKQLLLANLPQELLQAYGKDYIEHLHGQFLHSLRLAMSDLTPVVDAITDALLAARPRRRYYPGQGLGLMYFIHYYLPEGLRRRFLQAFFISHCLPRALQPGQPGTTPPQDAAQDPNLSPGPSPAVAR
Put plainly: Inhibition of 11β-HSD2 (cortisol to cortisone, human microsomes, cortisol ELISA). The format is biochemical. The note with it: 10 µM compound, 2.5 h at 37 °C. As to the method: […] […] The level of unreacted cortisol was measured by commercially available ELISA kit.
as §1

T1 sequence (P28845 whole entry): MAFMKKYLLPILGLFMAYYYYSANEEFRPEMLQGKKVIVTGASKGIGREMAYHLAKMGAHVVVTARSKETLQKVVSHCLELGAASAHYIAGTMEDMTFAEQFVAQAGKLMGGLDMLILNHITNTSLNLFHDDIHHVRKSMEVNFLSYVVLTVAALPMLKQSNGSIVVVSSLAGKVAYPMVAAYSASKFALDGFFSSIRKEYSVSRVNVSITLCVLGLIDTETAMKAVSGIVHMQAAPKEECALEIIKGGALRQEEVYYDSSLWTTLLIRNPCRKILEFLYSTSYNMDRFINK

`O=C1CSC(NC23CC4CC(CC(C4)C2)C3)=N1` [3a, 2-(adamantan-1-ylamino)thiazol-4(5H)-one] displayed a melting point of 271 to 273 °C. On 11β-HSD1, this molecule registered an inhibition at 10 µM of 22.3 ± 5.31% and an IC50 of over 10 µM. The molecule further displayed an inhibition at 10 µM on 11β-HSD2 of 29.8 ± 4.21%.

In turn, `CC(C)C1SC(NC23CC4CC(CC(C4)C2)C3)=NC1=O` (stereo not drawn) [3e, 2-(adamantan-1-ylamino)-5-isopropylthiazol-4(5H)-one] showed a melting point of 239 to 241 °C. On 11β-HSD1, the inhibition at 10 µM turned out to be 76.4 ± 2.55% and the IC50 worked out at 1.19 ± 0.21 µM. Further, the inhibition at 10 µM at 11β-HSD2 came out at 16.4 ± 2.06%.

On to `CC1(C)[C@@H](OC(=O)CCC(=O)O)CC[C@]2(C)[C@H]3C(=O)C=C4[C@@H]5C[C@@](C)(C(=O)O)CC[C@]5(C)CC[C@@]4(C)[C@]3(C)CC[C@@H]12` [carbenoxolone, reference compound], for which the inhibition at 10 µM on 11β-HSD1 worked out at 84.8 ± 6.23%.

In turn, `CC1SC(NC23CC4CC(CC(C4)C2)C3)=NC1=O` (stereo not drawn) [3b, 2-(adamantan-1-ylamino)-5-methylthiazol-4(5H)-one] yielded a melting point of 265 to 267 °C. On 11β-HSD1, 10 µM produced 62.1 ± 3.59% inhibition and inhibition was half-maximal at 3.52 ± 0.19 µM (IC50). In addition, 10 µM produced 44.7 ± 4.19% inhibition on 11β-HSD2.

`O=C1N=C(NC23CC4CC(CC(C4)C2)C3)SC12CCC2` [3j, 6-(adamantan-1-ylamino)-5-thia-7-azaspiro[3.4]oct-6-en-8-one] showed a melting point of 265 to 266 °C. On 11β-HSD1, testing at 10 µM gave an inhibition of 74.1 ± 2.85% and the IC50 was found to be 3.32 ± 0.24 µM. Further, the inhibition at 10 µM against 11β-HSD2 is 41.4 ± 4.22%.

On to `CC1(C)SC(NC23CC4CC(CC(C4)C2)C3)=NC1=O` [3f, 2-(adamantan-1-ylamino)-5,5-dimethylthiazol-4(5H)-one], for which the melting point is 208 to 210 °C. On 11β-HSD1, this molecule yielded an inhibition at 10 µM of 66 ± 1.12% and an IC50 of 6.11 ± 0.62 µM. This molecule showed an inhibition at 10 µM against 11β-HSD2 of 24.5 ± 3.24%.

Regarding `O=C1N=C(NC23CC4CC(CC(C4)C2)C3)SC1c1ccccc1` (stereo not drawn) [3g, 2-(adamantan-1-ylamino)-5-phenylthiazol-4(5H)-one], the figures for the inhibition at 10 µM on 11β-HSD1 and on 11β-HSD2 were 46.3 ± 5.53% and 18.3 ± 3.18%, respectively. Also, the IC50 at 11β-HSD1 was over 10 µM.

The molecule `CCC1SC(NC23CC4CC(CC(C4)C2)C3)=NC1=O` (stereo not drawn) [3c, 2-(adamantan-1-ylamino)-5-ethylthiazol-4(5H)-one] came in with a melting point of 257 to 259 °C. On 11β-HSD1, at 10 µM the inhibition was 69.2 ± 5.12% and the IC50 amounted to 5.44 ± 0.32 µM. Moreover, the inhibition at 10 µM against 11β-HSD2 came to 14.4 ± 1.16%.

In turn, `CCCC1SC(NC23CC4CC(CC(C4)C2)C3)=NC1=O` (stereo not drawn) [3d, 2-(adamantan-1-ylamino)-5-propylthiazol-4(5H)-one] showed a melting point of 247 to 249 °C. Further, on 11β-HSD1, the inhibition at 10 µM was 72.4 ± 2.63% and the IC50 was determined as 3.23 ± 0.26 µM. On 11β-HSD2, this molecule showed an inhibition at 10 µM of 28.9 ± 4.11%.

At 11β-HSD1, `O=C1N=C(NC23CC4CC(CC(C4)C2)C3)SC1c1ccc(Br)cc1` (stereo not drawn) [3h, 2-(adamantan-1-ylamino)-5-(4-bromophenyl)thiazol-4(5H)-one] had an inhibition at 10 µM of 15.3 ± 0.49% and an IC50 of over 10 µM. Besides, the inhibition at 10 µM at 11β-HSD2 came out at 41.8 ± 6.12%.

Molecule `O=C1N=C(NC23CC4CC(CC(C4)C2)C3)SC12CCCCC2` [3i, 2-(adamantan-1-ylamino)-1-thia-3-azaspiro [4.5]dec-2-en-4-one] returned a melting point of 268 to 270 °C. At 11β-HSD1, this molecule showed an inhibition at 10 µM of 82.8 ± 2.05% and an IC50 of 0.31 ± 0.05 µM. Further, the inhibition at 10 µM against 11β-HSD2 was over 44%.
